# Results from patent US7479498B2, “Treatments for viral infections” (priority 1999, dated 2009).
# “Also recorded” adds a separate entry of the source. Counter-ions that a name gives are not always drawn. Like-named read-outs stand apart in the source and are kept apart here.
# Key:
# [1] = cited from earlier work
# P. falciparum = conditions: cited from earlier work
# [2] = cited from earlier work; for time to peak (maximum) plasma concentration: oral; for plasma half-life: after oral primaquine
# P. vivax = conditions: in vivo; cited from earlier work
# GSH production = conditions: cited from earlier work
# HIV = format: cell-based; conditions: standardized extract containing 1-10 μg/ml quercetin
# Description: The in vitro effect of calcium channel blockers on HIV infection both in HIV adapted cell lines (HUT/H9) as well as acutely infected peripheral blood lymphocytes were studied.
smiles,measurement,setting,value
"O=C1NC(=O)C(c2ccccc2)(c2ccccc2)N1 [phenytoin, 5,5-diphenyl-2,4-imidazolidinedione]",solubility in water / aqueous mixtures,[1],poorly soluble in aqueous mixtures; also recorded: water insoluble
CCN(CC)CCCC(C)Nc1ccnc2cc(Cl)ccc12 (centres unmarked) [Chloroquine],therapeutically effective plasma concentration,P. falciparum; sensitive P. falciparum,approximately 30 μg/L
same,apparent volume of distribution,[2]; in vivo,"about 13,000 L"
same,half-life (elimination / urinary excretion),[2]; in vivo,72 to 120 h
same,plasma protein binding,[2]; in vivo,50-65%
same,time to peak (maximum) plasma concentration,[2],about 3 hours
same,therapeutically effective plasma concentration,P. vivax,~15 µg/L
COc1cc(NC(C)CCCN)c2ncccc2c1 (centres unmarked) [Primaquine],plasma half-life,[2],3 to 8 h
same,peak serum concentration,[2]; oral primaquine,50 to 66 ng/mL
same,time to peak (maximum) plasma concentration,[2],1 to 2 h
COc1cc(NC(C)CCC(=O)O)c2ncccc2c1 (centres unmarked) [carboxyprimaquine],peak serum concentration,[2]; after 14 daily doses of primaquine,432 to 1240 ng/mL
same,plasma half-life,[2],22 to 30 h
same,plasma concentration relative to parent compound,[2]; in vivo,more than ten times greater
C=C[C@H]1C[N@@]2CC[C@H]1C[C@H]2[C@H](O)c1ccnc2ccc(OC)cc12 [Quinine],cerebrospinal fluid concentration as share of plasma level,[2]; in vivo,about 7%
same,plasma concentration accompanied by adverse reactions of cinchonism,[2]; in vivo,over 7 μg/mL
same,red blood cell level as share of plasma level,[2]; in vivo,about 20%
same,share of drug metabolized in the liver,[2]; in vivo,Approximately 80%
same,time to peak (maximum) plasma concentration,[2],1 to 3 h
same,plasma level,"[2]; standard oral doses, normal or mild infection",about 7 μg/mL
same,mean plasma concentration effective to eliminate asexual parasites,P. vivax,over 5 μg/mL
OC(c1cc(C(F)(F)F)nc2c(C(F)(F)F)cccc12)C1CCCCN1 (centres unmarked) [Mefloquine],plasma level necessary for chemo-suppression,P. falciparum; in vivo,200 to 300 ng/mL
same,half-life (elimination / urinary excretion),[2]; in vivo,312 to 792 h
"O=C1NC(=O)C(c2ccccc2)(c2ccccc2)N1 [Phenytoin sodium, monosodium salt of 5,5-diphenyl hydantoinate]",solubility in water / aqueous mixtures,[1],readily soluble in water; also recorded: highly water-soluble
"O=c1c(O)c(-c2ccc(O)c(O)c2)oc2cc(O)cc(O)c12 [quercetin, 2-(3,4-Dihydroxyphenyl)-3,5,7-trihydroxy-4H-1-benzopyran-4-one]",absorption in the jejunum,[2]; in vivo,66%
same,increase of GSH production,GSH production,50%
same,reduction of HIV activity,HIV,5-20%
